From patent EP2201946A1, “PAI-1 PRODUCTION INHIBITOR” (Institute of Medicinal Molecular Design, Inc., priority 2007, dated 2009)

How the values were obtained:
[1] = tested on: TGF-β induced PAI-1 production; test: TGF-β induced PAI-1 production in HT1080 cells (Western blotting); format: cell-based; details: TGF-β1 10 ng/mL, 6-hours incubation
Procedure: After incubating HT1080 cells for 48 hours in the MEM medium containing 10%FBS (Fetal Bovine Serum), the medium was changed to a MEM medium containing 1% FBS, and TGF-β1 (final concentration: 10 ng/mL) only, or TGF-β1 (final concentration: 10 ng/mL) and the test substances were added and incubated. As a control, a culture solution without neither TGF-β1 nor the test substances was prepared. After 6-hours incubation, the culture fluids were collected, and the PAI-1 amounts in the culture fluids were measured by the Western blotting. The PAI-1 amount when TGF-β1 only was added being "100%," and the PAI-1 amount in the control being "0%," PAI-1 I amounts at each concentration of the test substances (PAI-1 inhibition ratios) were calculated, and the concentrations of the compounds, which inhibited PAI-1 production to 50% (IC50) in amount, were obtained.

[2] = tested on: TGF-β induced PAI-1 production; test: TGF-β induced PAI-1 production in HepG2 cells (Human Serpin E1/PAI-1 DuoSet); format: cell-based; details: Compound Concentration : 1μM, TGF-β1 1ng/mL, 24 hours
Procedure: HepG2 cells were seeded on a 96-well culture plate by 2x10^4 cells/well, and were incubated for 24 hours in the MEM medium containing 1% NEAA (Non-Essential Amino Acids), 1mM pyruvate, and 10% FBS. Then, the medium was changed to a MEM medium containing 1% NEAA, 1mM pyruvate and 1% FBS, and the cells were further incubated for 24 hours. Subsequently, after the medium was changed to a MEM medium containing 1% NEAA, 1mM pyruvate and 1% FBS, and then the cells were treated with the test substances (final concentration: 1 µM or 0.1 µM) for one hour, TGF-β1 (final concentration.1ng/mL) was added and the cells were further incubated for 24 hours. As controls, a culture solution added TGF-β1 only and a culture solution cultured without neither the test substances nor TGF-β1 were prepared. After the incubation, the PAI-1 amount was measured using Human Serpin E1/PAI-1 DuoSet (R&D Systems). The PAI-1 amount when treated with TGF-β1 only being "100%", and the PAI-1 amount when treated without neither the test substances nor TGF-β1 being "0%", the PAI-1 inhibition ratios of each test substance were calculated. IC50 of the compound (2) was about 50 nM.

[3] = tested on: Chronic Obstructive Pulmonary Disease (COPD) model; test: Collagen accumulation in alveoli of guinea pigs exposed to cigarette smoke (Masson-trichrome, image analysis); format: in vivo; details: smoke of 40 cigarettes a day for 25 days, oral once a day for 25 days, compound (1) 30 or 100 mg/kg/day, prednisolone 10 mg/kg/day (Fig. 2)
Procedure: Using the smoking exposure system (INH06-CIG01A, MIPS Inc.), 6-week old guinea pigs (Std: male Hartley, Japan SLC, Inc.) were exposed to smoke of 40 cigarettes (Peace (Registered Trademark), Japan Tobacco, Inc.) a day (20 cigarettes twice) for 25 continuous days (Chronic Obstructive Pulmonary Disease (COPD) model group: Control group: n=10). To theseguinea pigs, from the day of exposure to the smoke of tobacco, the compound (1) (30 mg/kg/day or 100 mg/kg/day) or prednisolone (10 mg/kg/day) was continuously administered orally once a day for 25 days (Compound (1) 30 mg administered group: n=5, Compound (1) 100 mg administered group: n=5, Prednisolone administered group: n=5). Furthermore, as a normal group, guinea pigs (n=5) exposed to air without the administration of the compound (1) and prednisolone were prepared. On the following day of the last exposure, after preparing paraffin sections in the lungs of each guinea pig, collagen was stained by the Masson-trichrome method, and the accumulations of collagen in the alveoli were measured by the area rate with the image analysis. […] Next, the above paraffin section was stained by the immunostaining method using an anti PAI-1 antibody (PAI-1 H-135; Santa Cruz; 250-fold dilution), and the ratio of PAI-1 expression cells to the total cell numbers infiltrated in the lung was measured. […]

| SMILES | IC50 [1] [nM] | Inhibition Ratio (%) [2] [%] | accumulation of collagen in the alveoli (area rate) [3] |
| --- | --- | --- | --- |
| O=C(Nc1cc(C(F)(F)F)ccc1C(F)(F)F)c1cc(Br)ccc1O [(3)] | 83 | >90 |  |
| C[C@]12C=CC(=O)C=C1CC[C@@H]1[C@@H]2[C@@H](O)C[C@@]2(C)[C@H]1CC[C@]2(O)C(=O)CO [prednisolone] |  |  | not able to inhibit the accumulation of collagen |
